Data published in US20110245223A1, “HETEROCYCLIC COMPOUNDS” (Japan Tobacco Inc., priority 2005, published 2011).

Biological target: T1, human HSD-1 (recombinant HSD-1) (Homo sapiens, UniProt P28845)
T1 construct: made in house
Assay: HSD-1 (hydroxysteroid dehydrogenase 1) activity inhibitory action in vitro, SPA, conversion of cortisone to cortisol
Assay type: biochemical
Conditions: recombinant human HSD-1 expressed using baculovirus system, 10 nM 3H cortisone, 500 μM NADPH, room temperature 90 to 120 min, read-out: hHSD1 (IC50 (nM))

T1 sequence (P28845 whole entry): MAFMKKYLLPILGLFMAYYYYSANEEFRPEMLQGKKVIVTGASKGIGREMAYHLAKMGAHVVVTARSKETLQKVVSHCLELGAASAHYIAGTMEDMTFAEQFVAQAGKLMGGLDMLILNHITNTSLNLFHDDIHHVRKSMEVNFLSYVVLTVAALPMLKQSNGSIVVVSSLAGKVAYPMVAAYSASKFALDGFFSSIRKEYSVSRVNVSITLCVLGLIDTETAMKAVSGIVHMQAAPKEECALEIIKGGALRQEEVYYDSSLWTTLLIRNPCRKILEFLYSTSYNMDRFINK

- IC50: < 30 nM
Structure (SMILES): O=C(OCCO)N1CCC(n2ncc(C(=O)N3CC[C@@H](c4ccccc4C(F)(F)F)C3)c2C2CC2)CC1 [Example 58, 1-{5-cyclopropyl-1-[1-(2-hydroxyethoxycarbonyl)piperidin-4-yl]-1H-pyrazole-4-carbonyl}-[(S)-3-(2-trifluoromethylphenyl)]pyrrolidine]
